Reference: ChEMBL document CHEMBL1641528, “Reverse type I inhibitor of Mycobacterium tuberculosis CYP125A1” (Bioorg Med Chem Lett, 2011)
pKd: −log10 of the molar value.

Biological target: Steroid C26-monooxygenase (Mycobacterium tuberculosis, UniProt P9WPP1, C429L)
Test: Binding affinity to Mycobacterium tuberculosis H37Rv CYP125A1 C429L mutant expressed in Escherichia coli by titration plot analysis

## CC1CCC(C(=O)NC(Cc2c[nH]c3ccccc23)C(=O)Nc2ccncc2)CC1 (stereo unspecified)
  pKd: 5.77
